Results: ChEMBL document CHEMBL1201862, “PubChem BioAssay data set” (2004)
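1) Cells in 96-well plates. 2) Compound, 48 h, 5 concentrations. 3) Linear interpolation between surrounding doses. 4) Unreached endpoint = highest concentration. Here, GI50 denotes the concentration required for 50% inhibition of growth.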 The source made the active and inactive calls. Rule as the data show it: active = GI50 up to about 1.1 µM and inactive = higher.

What was measured:
Experiment in all cases: DTP human tumour cell line panel, 48 h
DU-145 = test system: DU-145
TK-10 = test system: TK-10
HCC 2998 = test system: HCC 2998
HCT-116 = test system: HCT-116
UO-31 = test system: UO-31
HL-60 = test system: HL-60
MCF7 = test system: MCF7
IGROV-1 = test system: IGROV-1
HOP-62 = test system: HOP-62
CCRF-CEM = test system: CCRF-CEM
K562 = test system: K562
SF-539 = test system: SF-539
MDA-N = test system: MDA-N
ACHN = test system: ACHN
NCI-H23 = test system: NCI-H23
A549 = test system: A549
BT-549 = test system: BT-549
SK-OV-3 = test system: SK-OV-3
SK-MEL-28 = test system: SK-MEL-28
MDA-MB-231 = test system: MDA-MB-231
U-251 = test system: U-251
MDA-MB-435 = test system: MDA-MB-435
HOP-92 = test system: HOP-92
HCT-15 = test system: HCT-15
OVCAR-5 = test system: OVCAR-5
OVCAR-8 = test system: OVCAR-8
COLO 205 = test system: COLO 205
NCI-H522 = test system: NCI-H522
KM12 = test system: KM12
LOX IMVI = test system: LOX IMVI
M14 = test system: M14
SN12C = test system: SN12C
SR = test system: SR
PC-3 = test system: PC-3
Hs-578T = test system: Hs-578T
OVCAR-3 = test system: OVCAR-3
EKVX = test system: EKVX
UACC-257 = test system: UACC-257
SF-268 = test system: SF-268
MOLT-4 = test system: MOLT-4
SF-295 = test system: SF-295
NCI-H226 = test system: NCI-H226
786-0 = test system: 786-0
SK-MEL-2 = test system: SK-MEL-2
UACC-62 = test system: UACC-62
NCI/ADR-RES = test system: NCI/ADR-RES
OVCAR-4 = test system: OVCAR-4
RPMI-8226 = test system: RPMI-8226
SW-620 = test system: SW-620
SNB-19 = test system: SNB-19
HT-29 = test system: HT-29
SNB-75 = test system: SNB-75
CAKI-1 = test system: CAKI-1
NCI-H460 = test system: NCI-H460
Malme-3M = test system: Malme-3M

Cc1ccccc1S(=O)(=O)Nn1cnc2ccc(S(=O)(=O)Nc3ccc(Cl)cc3)cc2c1=O
GI50 (DU-145): > 100 µM (inactive)
GI50 (TK-10): > 100 µM (inactive)
GI50 (HCC 2998): > 100 µM (inactive)
GI50 (HCT-116): > 100 µM (inactive)
GI50 (UO-31): 18.1 µM (inactive)
GI50 (HL-60): > 100 µM (inactive)
GI50 (MCF7): > 100 µM (inactive)
GI50 (IGROV-1): 7.59 µM (inactive)
GI50 (HOP-62): > 100 µM (inactive)
GI50 (CCRF-CEM): > 100 µM (inactive)
GI50 (K562): 10 µM (inactive)
GI50 (SF-539): > 100 µM (inactive)
GI50 (MDA-N): 53.1 µM (inactive)
GI50 (ACHN): > 100 µM (inactive)
GI50 (NCI-H23): 60.4 µM (inactive)
GI50 (A549): > 100 µM (inactive)
GI50 (BT-549): > 100 µM (inactive)
GI50 (SK-OV-3): > 100 µM (inactive)
GI50 (SK-MEL-28): > 100 µM (inactive)
GI50 (MDA-MB-231): > 100 µM (inactive)
GI50 (U-251): > 100 µM (inactive)
GI50 (MDA-MB-435): 82.8 µM (inactive)
GI50 (HOP-92): > 100 µM (inactive)
GI50 (HCT-15): > 100 µM
GI50 (OVCAR-5): > 100 µM (inactive)
GI50 (OVCAR-8): > 100 µM (inactive)
GI50 (COLO 205): > 100 µM (inactive)
GI50 (NCI-H522): > 100 µM (inactive)
GI50 (KM12): 12.4 µM (inactive)
GI50 (LOX IMVI): > 100 µM (inactive)
GI50 (M14): 65.9 µM (inactive)
GI50 (SN12C): > 100 µM (inactive)
GI50 (SR): > 100 µM (inactive)
GI50 (PC-3): 16.1 µM (inactive)
GI50 (Hs-578T): 28.8 µM (inactive)
GI50 (OVCAR-3): 85.5 µM (inactive)
GI50 (EKVX): 35.2 µM (inactive)
GI50 (UACC-257): > 100 µM (inactive)
GI50 (SF-268): > 100 µM (inactive)
GI50 (MOLT-4): > 100 µM (inactive)
GI50 (SF-295): 48.4 µM (inactive)
GI50 (NCI-H226): > 100 µM (inactive)
GI50 (786-0): > 100 µM (inactive)
GI50 (SK-MEL-2): 16.6 µM (inactive)
GI50 (UACC-62): 27.5 µM (inactive)
GI50 (NCI/ADR-RES): > 100 µM (inactive)
GI50 (OVCAR-4): > 100 µM (inactive)
GI50 (RPMI-8226): 51.8 µM (inactive)
GI50 (SW-620): > 100 µM (inactive)
GI50 (SNB-19): > 100 µM (inactive)
GI50 (HT-29): > 100 µM (inactive)
GI50 (SNB-75): > 100 µM (inactive)
GI50 (CAKI-1): > 100 µM (inactive)
GI50 (NCI-H460): > 100 µM (inactive)
GI50 (Malme-3M): > 100 µM (inactive)
